Laboratory results from ChEMBL document CHEMBL3785012, “Cell-penetrating conjugates of pentaglutamylated methotrexate as potential anticancer drugs against resistant tumor cells” (Eur J Med Chem, 2016).
Residues, ends and D or L forms follow the SMILES beside them. *: point of attachment. DAMPA = CN(Cc1cnc2nc(N)nc(N)c2n1)c1ccc(C(=O)*)cc1

Key:
MDA-MB-231 [1] = assay: Cytostatic activity against human MDA-MB-231 cells preincubated for 3 hrs followed by serum treatment for 72 hrs measured on day 4 by MTT assay; assay type: functional, cell-based
MCF7 [2] = assay: Cytostatic activity against human MCF7 cells preincubated for 3 hrs followed by serum treatment for 72 hrs measured on day 4 by MTT assay; assay type: functional, cell-based
MCF7 [3] = assay: Drug uptake in human MCF7 cells at 1 uM preincubated for 90 mins followed by compound wash out and subsequent trypsin addition for 10 mins by 5 (6)-carboxy-fluorescein based flow cytometric analysis; assay type: ADME, cell-based; conditions: mcf7, 10 min
MCF7 [4] = assay: Drug uptake in human MCF7 cells at 5 uM preincubated for 90 mins followed by compound wash out and subsequent trypsin addition for 10 mins by 5 (6)-carboxy-fluorescein based flow cytometric analysis; assay type: ADME, cell-based; conditions: mcf7, 10 min
MCF7 [5] = assay: Drug uptake in human MCF7 cells at 10 uM preincubated for 90 mins followed by compound wash out and subsequent trypsin addition for 10 mins by 5 (6)-carboxy-fluorescein based flow cytometric analysis; assay type: ADME, cell-based; conditions: mcf7, 10 min
MDA-MB-231 [6] = assay: Drug uptake in human MDA-MB-231 cells at 1 to 10 uM preincubated for 90 mins followed by compound wash out and subsequent trypsin addition for 10 mins by 5 (6)-carboxy-fluorescein based flow cytometric analysis; assay type: ADME, cell-based; conditions: mda-mb-231, 10 min
MCF7 [7] = assay: Drug uptake in human MCF7 cells at 1 to 10 uM preincubated for 90 mins followed by compound wash out and subsequent trypsin addition for 10 mins by 5 (6)-carboxy-fluorescein based flow cytometric analysis; assay type: ADME, cell-based; conditions: mcf7, 10 min

Row | Structure (SMILES) | IC50 (MDA-MB-231 [1]) [µM] | IC50 (MCF7 [2]) [µM] | Flu intensity (MCF7 [3]) | Flu intensity (MCF7 [4]) | Flu intensity (MCF7 [5]) | Drug uptake (MDA-MB-231 [6]) | Drug uptake (MCF7 [7])
1 | N=C(N)NCCC[C@H](NC(=O)[C@H](CCCNC(=N)N)NC(=O)[C@H](CCCNC(=N)N)NC(=O)[C@H](CCCNC(=N)N)NC(=O)[C@H](CCCNC(=N)N)NC(=O)[C@H](CCCNC(=N)N)NC(=O)[C@H](CCCNC(=N)N)NC(=O)[C@@H](N)CCCNC(=N)N)C(=O)O | > 100 | 100 | 975 | < 8669 | < 52928 | Active | 
2 | CN(Cc1cnc2nc(N)nc(N)c2n1)c1ccc(C(=O)N[C@@H](CCC(=O)O)C(=O)N[C@@H](CCCNC(=N)N)C(=O)N[C@@H](CCCNC(=N)N)C(=O)N[C@@H](CCCNC(=N)N)C(=O)N[C@@H](CCCNC(=N)N)C(=O)N[C@@H](CCCNC(=N)N)C(=O)N[C@@H](CCCNC(=N)N)C(=O)N[C@@H](CCCNC(=N)N)C(=O)N[C@@H](CCCNC(=N)N)C(=O)O)cc1 | 100 | > 100 |  |  |  |  | 
3 | CC[C@H](C)[C@H](NC(=O)[C@H](CCCCN)NC(=O)[C@@H](NC(=O)[C@H](CCC(N)=O)NC(=O)[C@H](CCCNC(=N)N)NC(=O)CNC(=O)[C@H](CC(C)C)NC(=O)[C@H](Cc1ccccc1)NC(=O)CNC(=O)[C@H](CCC(=O)O)NC(=O)[C@H](CCC(=O)O)NC(=O)[C@H](CCC(=O)O)NC(=O)[C@H](CCC(=O)O)NC(=O)[C@H](CCC(=O)O)NC(=O)[C@H](CCC(=O)O)NC(=O)c1ccc(N(C)Cc2cnc3nc(N)nc(N)c3n2)cc1)[C@@H](C)CC)C(=O)N[C@@H](Cc1c[nH]c2ccccc12)C(=O)N[C@@H](Cc1ccccc1)C(=O)N[C@@H](CCC(N)=O)C(=O)N[C@@H](CC(N)=O)C(=O)N[C@@H](CCCNC(=N)N)C(=O)N[C@@H](CCCNC(=N)N)C(=O)N[C@@H](CCCCN)C(=O)N[C@@H](Cc1c[nH]c2ccccc12)C(=O)N[C@@H](CCCCN)C(=O)N[C@@H](CCCCN)C(=O)O ({DAMPA}-EEEEEEGFLGRQIKIWFQNRRKWKK-OH) | 0.4 | 0.3 |  |  |  | Active | Active
4 | CC(C)C[C@H](NC(=O)[C@H](Cc1ccccc1)NC(=O)CNC(=O)[C@H](CCC(=O)O)NC(=O)[C@H](CCC(=O)O)NC(=O)[C@H](CCC(=O)O)NC(=O)[C@H](CCC(=O)O)NC(=O)[C@H](CCC(=O)O)NC(=O)[C@H](CCC(=O)O)NC(=O)c1ccc(N(C)Cc2cnc3nc(N)nc(N)c3n2)cc1)C(=O)NCC(=O)N[C@@H](CCCNC(=N)N)C(=O)N[C@@H](CCCNC(=N)N)C(=O)N[C@@H](CCCNC(=N)N)C(=O)N[C@@H](CCCNC(=N)N)C(=O)N[C@@H](CCCNC(=N)N)C(=O)N[C@@H](CCCNC(=N)N)C(=O)N[C@@H](CCCNC(=N)N)C(=O)N[C@@H](CCCNC(=N)N)C(=O)O ({DAMPA}-EEEEEEGFLGRRRRRRRR-OH) | 100 | > 100 |  |  |  |  | 
5 | CC[C@H](C)[C@H](NC(=O)[C@H](CCCCN)NC(=O)[C@@H](NC(=O)[C@H](CCC(N)=O)NC(=O)[C@H](CCCNC(=N)N)NC(=O)[C@H](CCC(=O)O)NC(=O)[C@H](CCC(=O)O)NC(=O)[C@H](CCC(=O)O)NC(=O)[C@H](CCC(=O)O)NC(=O)[C@H](CCC(=O)O)NC(=O)[C@H](CCC(=O)O)NC(=O)c1ccc(N(C)Cc2cnc3nc(N)nc(N)c3n2)cc1)[C@@H](C)CC)C(=O)N[C@@H](Cc1c[nH]c2ccccc12)C(=O)N[C@@H](Cc1ccccc1)C(=O)N[C@@H](CCC(N)=O)C(=O)N[C@@H](CC(N)=O)C(=O)N[C@@H](CCCNC(=N)N)C(=O)N[C@@H](CCCNC(=N)N)C(=O)N[C@@H](CCCCN)C(=O)N[C@@H](Cc1c[nH]c2ccccc12)C(=O)N[C@@H](CCCCN)C(=O)N[C@@H](CCCCN)C(=O)O ({DAMPA}-EEEEEERQIKIWFQNRRKWKK-OH) | 0.1 | > 100 |  |  |  | Active | Active
6 | CN(Cc1cnc2nc(N)nc(N)c2n1)c1ccc(C(=O)N[C@@H](CCC(=O)O)C(=O)N[C@@H](CCC(=O)O)C(=O)N[C@@H](CCC(=O)O)C(=O)N[C@@H](CCC(=O)O)C(=O)N[C@@H](CCC(=O)O)C(=O)N[C@@H](CCC(=O)O)C(=O)N[C@@H](CCCNC(=N)N)C(=O)N[C@@H](CCCNC(=N)N)C(=O)N[C@@H](CCCNC(=N)N)C(=O)N[C@@H](CCCNC(=N)N)C(=O)N[C@@H](CCCNC(=N)N)C(=O)N[C@@H](CCCNC(=N)N)C(=O)N[C@@H](CCCNC(=N)N)C(=O)N[C@@H](CCCNC(=N)N)C(=O)O)cc1 ({DAMPA}-EEEEEERRRRRRRR-OH) | > 100 | > 100 |  |  |  | Active | Active
7 | CC[C@H](C)[C@H](NC(=O)[C@H](CCCCN)NC(=O)[C@@H](NC(=O)[C@H](CCC(N)=O)NC(=O)[C@H](CCCNC(=N)N)NC(=O)CNC(=O)[C@H](CC(C)C)NC(=O)[C@H](Cc1ccccc1)NC(=O)CNC(=O)[C@H](CCC(=O)O)NC(=O)c1ccc(N(C)Cc2cnc3nc(N)nc(N)c3n2)cc1)[C@@H](C)CC)C(=O)N[C@@H](Cc1c[nH]c2ccccc12)C(=O)N[C@@H](Cc1ccccc1)C(=O)N[C@@H](CCC(N)=O)C(=O)N[C@@H](CC(N)=O)C(=O)N[C@@H](CCCNC(=N)N)C(=O)N[C@@H](CCCNC(=N)N)C(=O)N[C@@H](CCCCN)C(=O)N[C@@H](Cc1c[nH]c2ccccc12)C(=O)N[C@@H](CCCCN)C(=O)N[C@@H](CCCCN)C(=O)O ({DAMPA}-EGFLGRQIKIWFQNRRKWKK-OH) | 5.5 | 13.9 |  |  |  | Active | Active
8 | CC(C)C[C@H](NC(=O)[C@H](Cc1ccccc1)NC(=O)CNC(=O)[C@H](CCC(=O)O)NC(=O)c1ccc(N(C)Cc2cnc3nc(N)nc(N)c3n2)cc1)C(=O)NCC(=O)N[C@@H](CCCNC(=N)N)C(=O)N[C@@H](CCCNC(=N)N)C(=O)N[C@@H](CCCNC(=N)N)C(=O)N[C@@H](CCCNC(=N)N)C(=O)N[C@@H](CCCNC(=N)N)C(=O)N[C@@H](CCCNC(=N)N)C(=O)N[C@@H](CCCNC(=N)N)C(=O)N[C@@H](CCCNC(=N)N)C(=O)O ({DAMPA}-EGFLGRRRRRRRR-OH) | 19.1 | 31.3 |  |  |  |  | 
9 | CC[C@H](C)[C@H](NC(=O)[C@H](CCCCN)NC(=O)[C@@H](NC(=O)[C@H](CCC(N)=O)NC(=O)[C@H](CCCNC(=N)N)NC(=O)[C@H](CCC(=O)O)NC(=O)c1ccc(N(C)Cc2cnc3nc(N)nc(N)c3n2)cc1)[C@@H](C)CC)C(=O)N[C@@H](Cc1c[nH]c2ccccc12)C(=O)N[C@@H](Cc1ccccc1)C(=O)N[C@@H](CCC(N)=O)C(=O)N[C@@H](CC(N)=O)C(=O)N[C@@H](CCCNC(=N)N)C(=O)N[C@@H](CCCNC(=N)N)C(=O)N[C@@H](CCCCN)C(=O)N[C@@H](Cc1c[nH]c2ccccc12)C(=O)N[C@@H](CCCCN)C(=O)N[C@@H](CCCCN)C(=O)O ({DAMPA}-ERQIKIWFQNRRKWKK-OH) | 12.9 | 40.2 |  |  |  |  | 
10 | CN(Cc1cnc2nc(N)nc(N)c2n1)c1ccc(C(=O)N[C@@H](CCC(=O)O)C(=O)O)cc1 [METHOTREXATE] | > 100 | 0.8 |  |  |  |  | 
